Data on one compound can be found in patent publication US7713527B2, “Specific avian egg antibodies for disease prevention and improvement of growth performance” (priority 2006, dated 2010).

Read-outs that look alike come from different tables or passages of the source.

The format of the experiment is in vivo. The conditions noted are these: Mecadox 1.0% in diet, no SDEP. On the procedure:
Thirty-six 18 day old piglets (6.3±0.2 kg) were allocated to six treatment groups, blocked by weight and given ad libitum access to feed and water (n=6/group)
Each group was administered varying doses of SDEP containing antibodies to ETEC K88 and/or antibiotics for 28 days (Table 1).
Animals were weighed at the end of phase 1 (14 d) and phase 2 (28 d), and average daily gains were calculated.
Thirty six crossbred (GAP Genetics, Winnipeg, MB, Canada) 18-d old pigs with an initial weight of 6.3±0.2 kg were allotted into six treatment groups: (1) control; (2) 0.1% SDEP; (3) 0.1% SDEP+antibiotics; (4) control+antibiotics; (5) 0.4% SDEP; (6) 0.4% SDEP+antibiotics.
Pigs were housed in stainless steel pens equipped with nipple waterers, stainless steel feeders, and plastic-coated expanded metal floors. The pens were located in an environmentally regulated building maintained at 25±2° C. with a 12-h light/dark cycle. Body weight and feed consumption were recorded after every phase and ad libitum access to feed and water was provided during the entire period of the study.
There were three pens per treatment and two pigs per pen. The pigs were fed a standard pig starter diet in phases 1 (Table 3) and 2 (Table 4). The diets were with or without spray-dried egg powder (SDEP) containing E. Coli K-88 antibodies and with or without antibiotics. The diets were fed in two phases. Both phases were fed for 14 days each. Pigs were allotted to treatments based on weaned weights and dam. Feed and water was available always. Pigs and feeders were weighed at the end of each phase to determine weight gains and feed disappearance.

Regarding `COC(=O)N/N=C/c1c[n+]([O-])c2ccccc2[n+]1[O-]` [Mecadox], where the note is “phase 1 (days 0-14)”, the “Avg. daily gain / ADG” value was 240 g, the “Avg. daily intake / ADFI” value was determined as 328 g, the Mean feed/gain turned out to be 1.63 and the “Mean final weight / End Weight” value is given as 9.6 kg. Further, the “G:F” value (phase 1) amounted to 0.72. Where the note is “phase 2 (days 14-28)”, the “Avg. daily gain / ADG” value was determined as 421 g, the “Avg. daily intake / ADFI” value is listed as 532 g, the Mean feed/gain is given as 1.35 and the “Mean final weight / End Weight” value amounted to 15.4 kg. Moreover, for the setting “phase 2”, the “G:F” value was found to be 0.74.
